In PubChem BioAssay (NCI):
Values joined by “and” are separate entries in the source; they are usually repeats but may differ in a detail not shown here. Identical values can stand only once.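 48-hour exposure; five concentrations; linearly interpolated endpoints. The concentration for 50% growth inhibition is given as GI50. The concentration for full growth arrest is given as TGI.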

Experiments:
Assay in all cases: DTP human tumour cell line panel, 48 h
786-0 renal = tested on: 786-0 renal
OVCAR-8 ovarian = tested on: OVCAR-8 ovarian
OVCAR-4 ovarian = tested on: OVCAR-4 ovarian
HS 578T breast = tested on: HS 578T breast
HCC-2998 colon = tested on: HCC-2998 colon
U251 CNS = tested on: U251 CNS
HCT-15 colon = tested on: HCT-15 colon
SNB-19 CNS = tested on: SNB-19 CNS
M19-MEL melanoma = tested on: M19-MEL melanoma
SNB-78 CNS = tested on: SNB-78 CNS

**Q.** Which results are given for `Cc1cccc2c3c(sc12)C(c1ccc(Cl)cc1)C(C#N)=C(N)O3` (configuration not stated)?
**A.** GI50 (786-0 renal): 0.643 µM; TGI (786-0 renal): 13.3 µM; GI50 (OVCAR-8 ovarian): 0.471 µM; TGI (OVCAR-8 ovarian): 6.89 µM; GI50 (OVCAR-4 ovarian): 2.08 µM; TGI (OVCAR-4 ovarian): 18.5 µM; GI50 (HS 578T breast): 0.274 µM; TGI (HS 578T breast): 1.48 µM; GI50 (HCC-2998 colon): 0.67 µM; TGI (HCC-2998 colon): 6.43 µM; GI50 (U251 CNS): 0.408 µM; TGI (U251 CNS): 11 µM; GI50 (HCT-15 colon): 0.374 µM; TGI (HCT-15 colon): 2.81 µM; GI50 (SNB-19 CNS): 0.452 µM; TGI (SNB-19 CNS): 12.6 µM

**Q.** Which results are given for `CC12CCC(=O)N1c1ccc([N+](=O)[O-])cc1N2` (configuration not stated)?
**A.** TGI (786-0 renal): > 100 µM; TGI (OVCAR-8 ovarian): > 100 µM; TGI (OVCAR-4 ovarian): > 100 µM; TGI (M19-MEL melanoma): > 100 µM; TGI (U251 CNS): > 100 µM; TGI (HCT-15 colon): > 100 µM; TGI (SNB-78 CNS): > 100 µM; TGI (SNB-19 CNS): > 100 µM

**Q.** For `O=C(CCCCCCN1CC(=O)N2[C@@H](c3ccc(Cl)c(Cl)c3)c3[nH]c4ccccc4c3C[C@H]2C1=O)NO`, which GI50 (786-0 renal) is on record?
**A.** Its GI50 is 4.63 µM.

**Q.** And the TGI (786-0 renal)?
**A.** Its TGI is 9.39 µM.

**Q.** What about the GI50 (OVCAR-8 ovarian) of the same compound?
**A.** The GI50 was 2.82 µM.

**Q.** What about the TGI (OVCAR-8 ovarian) of the same compound?
**A.** Its TGI is 17.9 µM.

**Q.** What about the GI50 (OVCAR-4 ovarian) of the same compound?
**A.** Its GI50 is 4.71 µM.

**Q.** And the TGI (OVCAR-4 ovarian)?
**A.** Its TGI is 23.8 µM.

**Q.** And the GI50 (HS 578T breast)?
**A.** The GI50 was 3.52 µM.

**Q.** And the TGI (HS 578T breast)?
**A.** The TGI was 15.6 µM.

**Q.** And the GI50 (HCC-2998 colon)?
**A.** The GI50 was 3.9 µM.

**Q.** And the TGI (HCC-2998 colon)?
**A.** The TGI was 8.38 µM.

**Q.** What about the GI50 (U251 CNS) of the same compound?
**A.** Its GI50 is 2.78 µM.

**Q.** And the TGI (U251 CNS)?
**A.** Its TGI is 8.25 µM.

**Q.** And the GI50 (HCT-15 colon)?
**A.** Its GI50 is 10 µM.

**Q.** And the TGI (HCT-15 colon)?
**A.** Its TGI is greater than 33.3 µM.

**Q.** What about the GI50 (SNB-19 CNS) of the same compound?
**A.** The GI50 was 4.54 µM.

**Q.** And the TGI (SNB-19 CNS)?
**A.** The TGI was 12.5 µM.

**Q.** Which results are given for `COc1cc(/C=C/C(=O)c2cccc(-n3cc(-c4ccc(Cl)cc4)[nH]c3=O)c2)cc(OC)c1OC`?
**A.** GI50 (786-0 renal): 2.14 µM; TGI (786-0 renal): 5.39 µM; GI50 (OVCAR-8 ovarian): 3.85 µM; TGI (OVCAR-8 ovarian): > 100 µM; GI50 (OVCAR-4 ovarian): 11.4 µM; TGI (OVCAR-4 ovarian): 38 µM; GI50 (HS 578T breast): 5.96 µM; TGI (HS 578T breast): > 100 µM; GI50 (HCC-2998 colon): 2.46 µM; TGI (HCC-2998 colon): 7.36 µM; GI50 (U251 CNS): 2.12 µM; TGI (U251 CNS): 4.62 µM; GI50 (HCT-15 colon): 3.85 µM; TGI (HCT-15 colon): 10.3 µM; GI50 (SNB-19 CNS): 16.1 µM; TGI (SNB-19 CNS): 37 µM

**Q.** Which results are given for `CC(=O)NCc1cccc(C#Cc2cncnc2Nc2ccc(OCc3cccc(F)c3)c(Cl)c2)c1`?
**A.** GI50 (786-0 renal): 10.7 µM; TGI (786-0 renal): > 25 µM; GI50 (OVCAR-8 ovarian): 9.58 µM; TGI (OVCAR-8 ovarian): > 25 µM; GI50 (OVCAR-4 ovarian): 12.9 µM; TGI (OVCAR-4 ovarian): > 25 µM; GI50 (HS 578T breast): > 22.4 µM; TGI (HS 578T breast): > 25 µM; GI50 (HCC-2998 colon): 9.04 µM; TGI (HCC-2998 colon): > 25 µM; GI50 (U251 CNS): 11 µM; TGI (U251 CNS): > 25 µM; GI50 (HCT-15 colon): 8.31 µM; TGI (HCT-15 colon): > 25 µM; GI50 (SNB-19 CNS): > 21.8 µM; TGI (SNB-19 CNS): > 25 µM

**Q.** What does the source list for `O=C1OC(C(O)CO)C(O)=C1O` (configuration not stated)?
**A.** GI50 (786-0 renal): 1790 µM and > 4300 µM; TGI (786-0 renal): 3290 µM and > 5710 µM; GI50 (OVCAR-8 ovarian): 1550 µM and 1510 µM; TGI (OVCAR-8 ovarian): 3050 µM and 3190 µM; GI50 (OVCAR-4 ovarian): 1840 µM and 1970 µM; TGI (OVCAR-4 ovarian): 3520 µM and 3940 µM; GI50 (HS 578T breast): 2990 µM and > 10000 µM; TGI (HS 578T breast): 7960 µM and > 10000 µM; GI50 (HCC-2998 colon): > 10000 µM; TGI (HCC-2998 colon): > 10000 µM; GI50 (U251 CNS): 1910 µM and 1840 µM; TGI (U251 CNS): 3400 µM and 3550 µM; GI50 (HCT-15 colon): 1860 µM; TGI (HCT-15 colon): 3450 µM and 3870 µM; GI50 (SNB-19 CNS): > 10000 µM; TGI (SNB-19 CNS): > 10000 µM

**Q.** What does the source list for `OC(C#Cc1ccccc1)(c1ccccc1)c1ccccc1`?
**A.** TGI (786-0 renal): > 100 µM; TGI (OVCAR-8 ovarian): > 100 µM; TGI (OVCAR-4 ovarian): > 100 µM; TGI (HS 578T breast): > 100 µM; TGI (HCC-2998 colon): > 100 µM; TGI (U251 CNS): 83.4 µM; TGI (HCT-15 colon): > 100 µM; TGI (SNB-19 CNS): > 100 µM

**Q.** For `COC1=C(OC)C(=O)C(SC/C=C(\C)CCCC(C)CCCC(C)CCCC(C)C)=CC1=O` (configuration not stated), which GI50 (786-0 renal) is on record?
**A.** Its GI50 is 11.2 µM.

**Q.** And the TGI (786-0 renal)?
**A.** Its TGI is greater than 100 µM.

**Q.** What about the GI50 (OVCAR-8 ovarian) of the same compound?
**A.** Its GI50 is 0.456 µM.

**Q.** What about the TGI (OVCAR-8 ovarian) of the same compound?
**A.** Its TGI is greater than 100 µM.

**Q.** And the GI50 (OVCAR-4 ovarian)?
**A.** The GI50 was 1.32 µM.

**Q.** What about the TGI (OVCAR-4 ovarian) of the same compound?
**A.** The TGI was greater than 100 µM.

**Q.** And the GI50 (HS 578T breast)?
**A.** Its GI50 is 0.709 µM.

**Q.** And the TGI (HS 578T breast)?
**A.** The TGI was greater than 48.4 µM.

**Q.** And the GI50 (HCC-2998 colon)?
**A.** Its GI50 is 2.37 µM.

**Q.** What about the TGI (HCC-2998 colon) of the same compound?
**A.** The TGI was greater than 100 µM.

**Q.** And the GI50 (U251 CNS)?
**A.** Its GI50 is 0.479 µM.

**Q.** And the TGI (U251 CNS)?
**A.** The TGI was greater than 100 µM.

**Q.** And the GI50 (HCT-15 colon)?
**A.** Its GI50 is 1.38 µM.

**Q.** What about the TGI (HCT-15 colon) of the same compound?
**A.** Its TGI is greater than 100 µM.

**Q.** What about the GI50 (SNB-19 CNS) of the same compound?
**A.** The GI50 was 1.5 µM.

**Q.** What about the TGI (SNB-19 CNS) of the same compound?
**A.** Its TGI is greater than 100 µM.
